For data set [1], the system named is Hepatitis C virus. In words: Antiviral activity against Hepatitis C virus genotype 1b by cell based assay. It counts as functional, organism-based, Hepacivirus hominis.
Data set [2] in a line: Inhibition of Hepatitis C virus genotype 1a NS3/4A protease activity using Ac-DE-Dap(QXL520)-EE-Abu-w-[COO]-ASC(5-FAMsp)-NH2 peptide substrate by FRET assay. On the set-up: species or system Hepatitis C virus subtype 1a.
The subject of data set [3] is Hepatitis C virus. Put plainly: Antiviral activity against Hepatitis C virus genotype 1a by cell based assay. Format: functional, organism-based, Hepacivirus hominis. As to conditions: subtype 1a.
A short description of data set [4]: Lipophilicity, log D of the compound. Conditions: octanol/water. It counts as physicochemical.
A short description of data set [5]: Absorption in Sprague-Dawley rat at 5 mg/kg, po. Set-up: dose 5 mg/kg, route oral. As to conditions: in vivo, read-out: Activity. Format: ADME, organism-based.
Data set [6] in a line: Clearance in Sprague-Dawley rat at 1 mg/kg, iv. On the set-up: dose 1 mg/kg, route intravenous. Conditions: in vivo. It counts as ADME, organism-based.
Data set [7] is described as follows: AUC (0 to infinity) in Sprague-Dawley rat at 5 mg/kg, po. As to conditions: plasma. It counts as ADME, organism-based. On the set-up: dose 5 mg/kg, route oral, time infinity.
The nature of data set [8]: Oral bioavailability in Sprague-Dawley rat at 5 mg/kg, po. Format: ADME, organism-based. Conditions: in vivo.
Data set [9] is described as follows: Inhibition of Hepatitis C virus genotype 1a NS3/4A protease activity using (Ac-DE-D(EDANS)-EE-Abu-w-[COO]-AS-K(DABCYL)-NH2 peptide substrate by FRET assay. On the set-up: species or system Hepatitis C virus subtype 1a.

SMILES strings stand for the structures.

Take `C=C[C@@H]1C[C@]1(NC(=O)[C@@H]1C[C@@H](Oc2ncc(OC)c3ccc(Cl)cc23)CN1C(=O)[C@@H](NC(=O)Oc1ccc2c(c1)B(O)OC2)C(C)(C)C)C(=O)NS(=O)(=O)C1CC1`: the results for the EC50 in data set [1] and in data set [3] were 0.023 µM and 0.17 µM, respectively. For the same compound, half-maximal inhibition in [2] (IC50) was put at 0.0013 µM.

For `C=C[C@@H]1C[C@]1(NC(=O)[C@@H]1C[C@@H](Oc2ncc(OC)c3ccc(Cl)cc23)CN1C(=O)[C@@H](NC(=O)Nc1ccc2c(c1)B(O)OC2)C(C)(C)C)C(=O)NS(=O)(=O)C1CC1`, in data set [4], the logD (commonly lipophilicity at a set pH, counting ionised and neutral species) was determined as 4.5. The results for the EC50 in data set [1] and in data set [3] were 0.024 µM and 0.16 µM, respectively. Also, the Fa in data set [5] stood at 0.92%. For the same compound, the IC50 (commonly the point on the concentration scale where inhibition reaches its midpoint) in data set [2] came out at 0.0022 µM. In addition, in [6], the clearance (commonly the volume of plasma or blood freed of the substance per unit of time) was 0.476 L/h/kg. Moreover, the AUC(0-inf) (commonly total exposure, with the tail of the curve extrapolated) in data set [7] is 0.041 µg·h/mL. Further, the bioavailability (usually the share of a dose that reaches the circulation, judged against a reference dose that is usually intravenous) in data set [8] worked out at 0.42%.

Regarding `C=C[C@@H]1C[C@]1(NC(=O)[C@@H]1C[C@@H](Oc2ncc(OC)c3ccc(Cl)cc23)CN1C(=O)[C@@H](NC(=O)c1ccc2c(c1)B(O)OC2)C(C)(C)C)C(=O)NS(=O)(=O)C1CC1`, the EC50 – broadly, the concentration giving half of the maximal effect – in data set [1] was determined as 0.091 µM; in [3] it was 0.29 µM. In data set [9], inhibition was half-maximal at 0.0046 µM (IC50).

On to `C=C[C@@H]1C[C@]1(NC(=O)[C@@H]1C[C@@H](Oc2ncc(OC)c3ccc(Cl)cc23)CN1C(=O)[C@@H](NC(=O)NCc1ccc2c(c1)B(O)OC2)C(C)(C)C)C(=O)NS(=O)(=O)C1CC1`, for which the values for the EC50 in [1] and in data set [3] were 0.025 µM and 0.13 µM, respectively. Also, the IC50 in data set [9] worked out at 0.002 µM.

Consider `C=C[C@@H]1C[C@]1(NC(=O)[C@@H]1C[C@@H](Oc2ncc(OC)c3ccc(Cl)cc23)CN1C(=O)[C@@H](NC(=O)Nc1cccc2c1B(O)OC2)C(C)(C)C)C(=O)NS(=O)(=O)C1CC1`, for which the EC50 in data set [1] was 0.038 µM; in data set [3], 0.065 µM. For the same compound, it took 0.016 µM to reach half-maximal inhibition in data set [9] (IC50).

In the case of `C=C[C@@H]1C[C@]1(NC(=O)[C@@H]1C[C@@H](Oc2ncc(OC)c3ccc(Cl)cc23)CN1C(=O)[C@@H](NC(=O)Nc1cccc2c1COB2O)C(C)(C)C)C(=O)NS(=O)(=O)C1CC1`, the EC50 in data set [1] amounted to 0.081 µM; in data set [3], 0.5 µM. This compound also registered an IC50 in [9] of 0.004 µM.

As to `C=C[C@@H]1C[C@]1(NC(=O)[C@@H]1C[C@@H](Oc2ncc(OC)c3ccc(Cl)cc23)CN1C(=O)[C@@H](NC(=O)Nc1cc2c(cc1F)COB2O)C(C)(C)C)C(=O)NS(=O)(=O)C1CC1`, the EC50 in data set [1] was determined as 0.0043 µM; in [3], 0.031 µM. This compound displayed an IC50 in data set [2] of 0.0017 µM.

As to `C=C[C@@H]1C[C@]1(NC(=O)[C@@H]1C[C@@H](Oc2ncc(OC)c3ccc(Cl)cc23)CN1C(=O)[C@@H](NC(=O)Nc1cc2c(cc1Cl)COB2O)C(C)(C)C)C(=O)NS(=O)(=O)C1CC1`, the EC50 was found to be 0.034 µM in [1] and 0.047 µM in [3]. The same compound returned an IC50 in data set [9] of 0.0013 µM.

For `C=C[C@@H]1C[C@]1(NC(=O)[C@@H]1C[C@@H](Oc2ncc(OC)c3ccc(Cl)cc23)CN1C(=O)[C@@H](NC(=O)Nc1ccc2c(c1)B(O)OC2(C)C)C(C)(C)C)C(=O)NS(=O)(=O)C1CC1`, the EC50 in [1] came to 0.13 µM; in data set [3], 0.28 µM. Half-maximal inhibition in data set [9] (IC50) required 0.026 µM.

The compound `C=C[C@@H]1C[C@]1(NC(=O)[C@@H]1C[C@@H](Oc2ncc(OC)c3ccc(Cl)cc23)CN1C(=O)[C@@H](Nc1ccc2c(c1)B(O)OC2)C(C)(C)C)C(=O)NS(=O)(=O)C1CC1` registered a logD in data set [4] of 4. The figures for the EC50 in [1] and in [3] were 0.034 µM and 0.11 µM, respectively. Further, the Fa in data set [5] turned out to be 4.9%. The compound also gave a clearance in [6] of 2.93 L/h/kg. This compound showed an AUC(0-inf) in [7] of 0.075 µg·h/mL. In [9], this compound displayed an IC50 of 0.0045 µM. This compound gave a bioavailability in data set [8] of 4.3%.

In the case of `C=C[C@@H]1C[C@]1(NC(=O)[C@@H]1C[C@@H](OC(=O)N2Cc3cccc(F)c3C2)CN1C(=O)[C@@H](NC(=O)Nc1cc2c(cc1F)COB2O)C(C)(C)C)C(=O)NS(=O)(=O)C1CC1`, the EC50 is 0.056 µM in data set [1] and 0.36 µM in data set [3]. Moreover, the IC50 in data set [2] worked out at 0.0011 µM.

For `C=C[C@@H]1C[C@]1(NC(=O)[C@@H]1C[C@@H](Oc2cc(-c3nc(C(C)C)cs3)nc3c(C)c(OC)ccc23)CN1C(=O)[C@@H](NC(=O)Nc1cc2c(cc1F)COB2O)C(C)(C)C)C(=O)NS(=O)(=O)C1CC1`, the EC50 worked out at 0.0086 µM in data set [1] and 0.0081 µM in data set [3]. Besides, the midpoint of inhibition in data set [9], the IC50, lay at 0.0031 µM.

Regarding `C=C[C@@H]1C[C@]1(NC(=O)[C@@H]1C[C@@H](Oc2ncc(OC)c3ccc(Cl)cc23)CN1C(=O)C(Nc1ccc2c(c1)B(O)OC2)C(C)(C)C)C(=O)NS(=O)(=O)C1CC1` (single isomer, unassigned; diastereomer 2), in data set [9], the IC50 was found to be 0.35 µM.

These data come from ChEMBL document CHEMBL1759838, “Synthesis and SAR of acyclic HCV NS3 protease inhibitors with novel P4-benzoxaborole moieties” (Bioorg Med Chem Lett, 2011).
